Measurements as given in PMC3767324, “Synthesis, Characterization, and BSA Binding Studies of Some New Benzamides Related to Schiff Base” (ISRN Organic Chemistry, 2013).
Values after ≈ are worked out from the molar mass of the structure shown.

Experiments:
A. niger [1] = test: agar disc diffusion, zone of inhibition; type: cell-based; conditions: Aspergillus niger, 48 h
Method: [The procedure below names another organism; the source lists this organism under the same test.] (§1) The in vitro antimicrobial screening effects of the compounds (3 and 5a–j) were individually tested against a panel of bacteria and fungi including Staphylococcus aureus (NCIM 5021), Bacillus subtilis (NCIM 2999), Pseudomonas aeruginosa (NCIM 5029), Escherichia coli (NCIM 2574), Candida. albicans (NCIM 3471), and Aspergillus flavus (NCIM 524). Microbial strains were cultured overnight at 37°C in nutrient and potato dextrose agar medium. All the pure microbial strains were obtained from National Chemical Laboratory (NCL), Pune, India.
(§2) The antibacterial activity of compounds was determined by agar disc diffusion method. Briefly, a suspension of tested bacterial strains was spread on the nutrient agar medium and potato dextrose agar for fungi. The discs (6 mm in diameter) impregnated with test chemicals each dissolved in concentration (100 μg/mL in DMSO) were placed on the inoculated agar and these plates were kept at 4°C for 2 h. The plate was incubated at 37°C for 24 h in case of bacteria and 48 h at 28°C in case of fungi. streptomycin (10 μg/disc) and fluconazole (10 μg/disc) were used as the standards for antibacterial and antifungal activity, respectively. All the samples were performed in triplicate and the zone of inhibition was measured in millimeters.

[2] = tested on: Aspergillus flavus (NCIM 524); test: agar disc diffusion, zone of inhibition; type: cell-based; conditions: Aspergillus flavus, NCIM524, 48 h
Method: as §1, §2

[3] = tested on: Bacillus subtilis (NCIM 2999); test: agar disc diffusion, zone of inhibition; type: cell-based; conditions: Bacillus subtilis, NCIM2999, 24 h
Method: as §1, §2

[4] = tested on: Pseudomonas aeruginosa (NCIM 5029); test: agar disc diffusion, zone of inhibition; type: cell-based; conditions: Pseudomonas aeruginosa, NCIM5029, 24 h
Method: as §1, §2

[5] = tested on: Staphylococcus aureus (NCIM 5021); test: agar disc diffusion, zone of inhibition; type: cell-based; conditions: Staphylococcus aureus, NCIM5021, 24 h
Method: as §1, §2

A. niger [6] = test: minimum inhibitory concentration by dilution method; type: cell-based
Method: [The procedure below names another organism; the source lists this organism under the same test.] as §1
(§3) The minimum inhibitory concentration of the synthesized compounds was determined by dilution method. The compounds were dissolved and then diluted using DMSO; two-fold serial concentrations of the compounds were employed to determine the MIC. In this method, the test concentrations of chemically synthesized compounds were made from 5 to 125 μg/mL.

[7] = tested on: Aspergillus flavus (NCIM 524); test: as above; type: cell-based; conditions: Aspergillus flavus, NCIM524
Method: as §1, §3

[8] = tested on: Bacillus subtilis (NCIM 2999); test: as above; type: cell-based; conditions: Bacillus subtilis, NCIM2999
Method: as §1, §3

[9] = tested on: Escherichia coli (NCIM 2574); test: as above; type: cell-based; conditions: Escherichia coli, NCIM2574
Method: as §1, §3

[10] = tested on: Pseudomonas aeruginosa (NCIM 5029); test: as above; type: cell-based; conditions: Pseudomonas aeruginosa, NCIM5029
Method: as §1, §3

[11] = tested on: Staphylococcus aureus (NCIM 5021); test: as above; type: cell-based
Method: as §1, §3

[12] = superoxide radical scavenging assay (NBT, xanthine-xanthine oxidase system); type: biochemical; conditions: NBT reduction, pH 7.8, 560 nm, three replicates
Method: Superoxide radical scavenging activity was measured as described by Kovala-Demertzi et al., (2004). The assay is based on the reduction of nitroblue tetrazolium (NBT) by superoxide ions generated by the xanthine-xanthine oxidase system (X–XO). The reaction system contained 0.2 mM xanthine and 0.6 mM NBT in 0.1 M phosphate buffer, pH 7.8. The tested compounds were dissolved in methanol. The reaction was started by addition of XO (0.07 U mL^−1), an activity which allowed to yield the absorbance change between 0.03 and 0.04 per minute, at 560 nm. The extent of NBT reduction was followed spectrophotometrically, by measuring the increase of the absorbance at 560 nm. All the experiments were replicated three times. The IC50 of each compound was defined as the concentration which inhibited 50% of the NBT reduction by O2 ^•− produced in the X–XO system.
Superoxide anion radical is normally initially formed, and its effects can be magnified because it produces other kinds of free radicals and oxidizing agents. The enzymatic superoxide anion radical was generated by the xanthine/xanthine oxidase reaction system. The production of superoxide was estimated by the nitroblue tetrazolium method. […] Differently, in the m-position, methoxy and hydroxyl groups act as an electron-withdrawing properties, ([…]), which are possible for providing a destabilizing effect.

[13] = target: T1, bovine serum albumin (BSA) (Bos taurus, UniProt P02769); test: fluorescence quenching of BSA, binding parameters; conditions: for n (number of binding sites) / K sv (Stern-Volmer quenching constant) / K q (quenching rate constant) / shift of BSA fluorescence emission maximum wavelength: 298 K; for K sv (Stern-Volmer quenching constant): BSA 1.00 × 10^−5 mol L^−1, Tris-HCl pH 7.4; for K q (quenching rate constant): τ0 = 10^−8 s; for shift of BSA fluorescence emission maximum wavelength: excitation 280 nm, emission around 340 nm
T1 construct: Bovine serum albumin (BSA), one of the major components in plasma protein; purchased Sigma Aldrich Bangalore
Method: All the chemicals and solvents were of AR grade. Solvents were used as supplied by commercial sources without any further purification. BSA (essentially fatty-acid-free) was purchased from Sigma Aldrich Bangalore and stored in refrigerator at 4.0°C. BSA solution was prepared in the Tris-HCl buffer solution (0.05 mol L^−1 Tris, 0.15 mol L^−1 NaCl, pH 7.4) and it was kept in the dark at 298 K. The compounds were prepared as stock solutions using DMF. All other reagents were of analytical reagent grade, and double-distilled water was used during the experiment.
For each of the […] active compounds (5a, 5c, 5g, 5h, 5i, and 5j), the binding parameters with BSA molecules were measured by fluorescence spectroscopy. A solution (2.5 mL) containing 1.00 × 10^−5 mol L^−1 BSA was titrated by successive additions of 1.00 × 10^−3 mol L^−1 NABP stock solution and the concentration of NABP varied from 0 to 3.0 × 10^−5 mol L^−1 (a–g). Titrations were done manually by using microinjector. Fluorescence intensity was measured (excitation at 280 nm and emission at 340 nm). All experiments were performed at 298 K.
In order to investigate the quenching mechanism, the fluorescence quenching data K 0 and n were analyzed by the Stern-Volmer equation (2): (2) F0/F=1+Ksv[Q]=1+Kqτ0[Q], where F 0 and F denote the steady-state fluorescence intensities in the absence and in the presence of quencher, respectively, K 0 is binding constant of BSA, [Q] is the equilibrium concentration of the quencher, and n is the number of binding sites. The average lifetime, τ 0 of the molecule without quencher is 10^−8 s.
When the quenching mechanism is static, the binding parameters between BSA and compounds can be determined using (3): (3) log(F0−F)/F=log Ka+n log[Q].
The plot of log[(F 0 − F)/F] versus log[NABP], binding constant K a, and binding sites n were calculated from the intercept and slope. […] The value of n approximately equaled 1.

[14] = Staphylococcus aureus, NCIM5021

T1 sequence (P02769 25-607): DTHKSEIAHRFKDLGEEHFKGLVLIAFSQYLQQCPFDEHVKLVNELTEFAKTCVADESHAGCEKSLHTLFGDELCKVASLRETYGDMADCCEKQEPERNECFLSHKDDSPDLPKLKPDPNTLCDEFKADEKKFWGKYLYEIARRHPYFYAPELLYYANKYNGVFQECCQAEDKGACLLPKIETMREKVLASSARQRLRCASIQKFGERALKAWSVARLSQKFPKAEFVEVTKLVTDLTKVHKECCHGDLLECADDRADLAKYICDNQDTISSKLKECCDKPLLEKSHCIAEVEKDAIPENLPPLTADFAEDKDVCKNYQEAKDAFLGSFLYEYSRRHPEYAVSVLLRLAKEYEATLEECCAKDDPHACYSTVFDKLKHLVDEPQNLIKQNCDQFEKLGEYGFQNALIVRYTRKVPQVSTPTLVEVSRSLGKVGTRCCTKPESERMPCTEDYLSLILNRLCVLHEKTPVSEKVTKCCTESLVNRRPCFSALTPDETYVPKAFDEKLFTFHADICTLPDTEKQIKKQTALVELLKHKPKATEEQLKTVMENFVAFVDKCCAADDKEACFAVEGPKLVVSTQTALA

| Compound | zone of inhibition at 100 µg/mL (A. niger [1]) [mm] | zone of inhibition at 100 µg/mL [2] [mm] | zone of inhibition at 100 µg/mL [3] [mm] | zone of inhibition at 100 µg/mL [4] [mm] | zone of inhibition at 100 µg/mL [5] [mm] | MIC (A. niger [6]; Aspergillus niger) [µg/mL] | MIC [7] [µg/mL] | MIC [8] [µg/mL] | MIC [9] [µg/mL] | MIC [10] [µg/mL] | MIC [11, 14] [µg/mL] | IC50 Superoxide [12] [µg/mL] | Kd [13] [µM] | n (number of binding sites) [13] | K sv (Stern-Volmer quenching constant) [13] [L/mol] | K q (quenching rate constant) [13] [M⁻¹ s⁻¹] | shift of BSA fluorescence emission maximum wavelength [13] | melting point [°C] | MIC (A. niger [6]; A. niger, dilution method, average of three replicates) [µg/mL] | MIC ([11]; S. aureus, dilution method, average of three replicates) [µg/mL] |
| --- | --- | --- | --- | --- | --- | --- | --- | --- | --- | --- | --- | --- | --- | --- | --- | --- | --- | --- | --- | --- |
| CC(=O)N(C(=O)c1cc(F)cc(F)c1)c1ccc(N=Cc2cc3ccccc3o2)cc1 [Compound 5h, N-acetyl-N-(4-((benzofuran-2-ylmethylene)amino)phenyl)-3,5-difluorobenzamide] | 11.4 | 10.9 | 12 | 17 | 14 | 10 (≈ 23.9 µM) | 15 (≈ 35.9 µM) | 12.4 (≈ 29.6 µM) | 25 (≈ 59.8 µM) | 25 (≈ 59.8 µM) | 12.4 (≈ 29.6 µM) | 96.1 ± 0.31 (≈ 230 µM) | 12.7 | 1.136 | 21300 | 2.13e+12 | red shift | 187 | – | – |
| COc1ccc(C(=O)N(C(C)=O)c2ccc(N=Cc3cc4ccccc4o3)cc2)cc1 [Compound 5i, N-acetyl-N-(4-(benzofuran-2-ylmethyleneamino)phenyl)-4-methoxybenzamide] | 10 | 14 | 10 | 13 | 14 | 35 (≈ 84.9 µM) | 30 (≈ 72.7 µM) | 50 (≈ 121 µM) | 30 (≈ 72.7 µM) | 35 (≈ 84.9 µM) | 40 (≈ 97 µM) | 14.3 ± 0.23 (≈ 34.7 µM) | 1.57 | 1.208 | 74000 | 7.4e+12 | slight blue shift | 205 | – | – |
| CC(=O)N(C(=O)c1ccc(O)cc1)c1ccc(N=Cc2cc3ccccc3o2)cc1 [Compound 5j, N-acetyl-N-(4-((benzofuran-2-ylmethylene)amino)phenyl)-4-hydroxybenzamide] | 9 | 15 | 9 | 13 | 12 | 40 (≈ 100 µM) | 40 (≈ 100 µM) | 35 (≈ 87.8 µM) | 50 (≈ 125 µM) | 50 (≈ 125 µM) | 35 (≈ 87.8 µM) | 11.6 ± 0.04 (≈ 29.1 µM) | 91.7 | 0.961 | 23900 | 2.39e+12 | red shift | 213 | – | – |
| CC(=O)N(C(=O)c1cc(F)c(F)c(F)c1)c1ccc(N=Cc2cc3ccccc3o2)cc1 [Compound 5g, N-acetyl-N-(4-(benzofuran-2-ylmethyleneamino)phenyl)-3,4,5-trifluorobenzamide] | 13.2 | 14 | 13.5 | 14 | 13.6 | 10 (≈ 22.9 µM) | 15 (≈ 34.4 µM) | 10 (≈ 22.9 µM) | 12 (≈ 27.5 µM) | 10 (≈ 22.9 µM) | 9.8 (≈ 22.5 µM) | 123 ± 0.44 (≈ 282 µM) | 6.37 | 1.281 | 79800 | 7.98e+12 | slight blue shift | 190 | 10 (≈ 22.9 µM) | 9.8 (≈ 22.5 µM) |
| CC(=O)N(C(=O)c1ccccc1)c1ccc(N=Cc2cc3ccccc3o2)cc1 [Compound 5c, N-acetyl-N -(4-((benzofuran-2-ylmethylene)amino)phenyl)benzamide] | 9 | 15 | 10 | 12 | 11 | 40 (≈ 105 µM) | 40 (≈ 105 µM) | 35 (≈ 91.5 µM) | 50 (≈ 131 µM) | 50 (≈ 131 µM) | 35 (≈ 91.5 µM) | 60.9 ± 0.28 (≈ 159 µM) | 38.6 | 0.855 | 19300 | 1.93e+12 | red shift | 192 | – | – |
| CC(=O)N(C(=O)c1cc(F)ccc1F)c1ccc(N=Cc2cc3ccccc3o2)cc1 [Compound 5a, N-acetyl-N-(4-((benzofuran-2-ylmethylene)amino)phenyl)-2,5-difluorobenzamide] | 11 | 10.4 | 16 | 14 | 11 | 15 (≈ 35.9 µM) | 15 (≈ 35.9 µM) | 12 (≈ 28.7 µM) | 25 (≈ 59.8 µM) | 25 (≈ 59.8 µM) | 12 (≈ 28.7 µM) | 91.3 ± 0.26 (≈ 218 µM) | 1.9 | 1.180 | 99600 | 9.96e+12 | slight blue shift | 197 | – | – |
